Experimental findings from ChEMBL document CHEMBL4706747, “Discovery of 5-Nitro-6-thiocyanatopyrimidines as Inhibitors of Cryptococcus neoformans and Cryptococcus gattii” (ACS Med Chem Lett, 2021) are described below.

In brackets after ≈: the same amount, converted by molar mass. Several values for one entry are separate records, joined by “and”; a condition that tells them apart may be missing. Equal entries are not always repeated.

Data set [1] relates to Cryptococcus neoformans. Put plainly: Antifungal activity against Cryptococcus neoformans assessed as fungal growth inhibition after 72 hrs by broth microdilution method. The format is functional.
Data set [2] in a line: Antifungal activity against Cryptococcus gattii RSA-3615 assessed as fungal growth inhibition after 48 hrs by limiting dilution method. Format: functional, Cryptococcus gattii VGI.
Data set [3] can be described thus: Cytotoxicity against human HepDE19 cells incubated for 72 hrs by MTS assay. Format: cell-based.
Data set [4] deals with Cryptococcus neoformans. Put plainly: Synergistic antifungal activity against Cryptococcus neoformans KN99alpha assessed as fractional inhibitory concentration index in presence of fluconazole by checkerboard assay. Format: functional.
For data set [5], the system named is Cryptococcus neoformans. The data set can be described thus: Synergistic antifungal activity against Cryptococcus neoformans KN99alpha assessed as fractional inhibitory concentration index in presence of amphotericin B by checkerboard assay. Format: functional.
For data set [6], the system named is Cryptococcus neoformans. Put plainly: Antifungal activity against fluconazole-resistant Cryptococcus neoformans DUMC-158.03 assessed as fungal growth inhibition after 48 hrs by limiting dilution method. Format: functional.
Data set [7] in a line: Selectivity index, ratio of CC50 for human HepDE19 cells to MIC80 for Cryptococcus neoformans KN99alpha. The conditions noted are these: read-out: Selectivity Index. The format is toxicity.
Data set [8] deals with Cryptococcus neoformans. The data set can be described thus: Antifungal activity against Cryptococcus neoformans KN99alpha assessed as fungal growth inhibition after 48 hrs by limiting dilution method. Format: functional.

Regarding `O[C@@](Cn1cnnn1)(c1ccc(F)cc1F)C(F)(F)c1ccc(-c2ccc(OC(F)(F)F)cc2)cn1`, the MIC50 in the data set with Cryptococcus neoformans [1] came to 0.015 µg/mL (≈ 0.0292 µM). For the same compound, the MIC in the data set on Cryptococcus neoformans [1] (read-out: MIC100) turned out to be 0.06 µg/mL (≈ 0.117 µM).
For `Cc1nc(NC2CC2)c([N+](=O)[O-])c(SC#N)n1`, the MIC80 is 0.58 µM and 0.14 µg/mL in data set [2]; 1.17 µM and 0.29 µg/mL in the data set on Cryptococcus neoformans [6]; 0.6 µM and 0.15 µg/mL with Cryptococcus neoformans [8]. In addition, the CC50 at 72 h in data set [3] is 12.7 µM and 3.19 µg/mL. Further, the “fractional inhibitory concentration index (FICI)” value in the data set on Cryptococcus neoformans [4] is recorded as 1.5; in the data set with Cryptococcus neoformans [5] it was 1.25. Besides, the selectivity ratio in data set [7] came out at 16.
As to `CC(C)Nc1nc(C(F)(F)F)nc(SC#N)c1[N+](=O)[O-]`, the MIC80 in data set [2] is > 25 µM and > 7.68 µg/mL; in the data set with Cryptococcus neoformans [6] it was 18.8 µM and 5.76 µg/mL; in the data set with Cryptococcus neoformans [8], 12.2 µM and 4.4 µg/mL. Also, in data set [3], the CC50 at 72 h was 42.8 µM and 13.2 µg/mL.
